Results reported in patent US20240299385A1 (ReWind Therapeutics NV, priority 2021, published 2024).

Target: T1, human GPR17 receptor (Homo sapiens, UniProt Q13304)
T1 construct: host or cells: HEK-293
Assay: Calcium mobilization functional assay (Fluo-8, FLIPR TETRA) in HEK-293 hGPR17 (Gα-q assay)
Type: cell-based
Conditions: antagonism of MDL29,951 (~EC80) induced Ca2+ signal; cell line (HEK-293 hGPR17 or HEK-293 Suchi5 hGPR17) not given
Procedure, shortened: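 Fluo-8-loaded HEK-293 hGPR17 cells (60 min dye loading, room temperature) were preincubated with compound for twenty minutes, then challenged with agonist MDL29,951 at ~EC80, 500 nM. Intracellular calcium release via Gα-q was recorded as FLIPR fluorescence for a further 2 minutes; compounds tested in duplicate.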

T1 sequence (Q13304 whole entry): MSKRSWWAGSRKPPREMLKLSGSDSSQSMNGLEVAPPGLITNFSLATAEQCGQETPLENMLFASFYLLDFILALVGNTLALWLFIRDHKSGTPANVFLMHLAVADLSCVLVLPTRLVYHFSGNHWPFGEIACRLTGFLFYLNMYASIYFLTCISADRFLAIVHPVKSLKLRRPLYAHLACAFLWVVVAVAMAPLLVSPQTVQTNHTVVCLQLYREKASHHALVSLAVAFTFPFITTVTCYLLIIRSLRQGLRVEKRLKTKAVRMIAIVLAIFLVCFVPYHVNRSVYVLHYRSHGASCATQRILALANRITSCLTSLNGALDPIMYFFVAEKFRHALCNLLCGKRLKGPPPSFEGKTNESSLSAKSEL

IC50 [µM] | SMILES
0.5 to 5 | N#Cc1cccc(Cc2c[nH]cc2S(=O)(=O)Nc2cc(F)c(C(F)(F)F)cc2F)c1 [Cpd 574, 4-[(3-cyanophenyl)methyl]-N-[2,5-difluoro-4-(trifluoromethyl)phenyl]-1H-pyrrole-3-sulfonamide]
< 0.5 | N#Cc1cc(F)c(NS(=O)(=O)c2c[nH]c(-c3cccc(Cl)n3)c2)cc1F [Cpd 575, 5-(6-chloropyridin-2-yl)-N-(4-cyano-2,5-difluorophenyl)-1H-pyrrole-3-sulfonamide]
0.5 to 5 | N#CCOc1cc(F)c(NS(=O)(=O)c2c[nH]c(-c3ccccc3)c2)cc1Cl [Cpd 576, N-[5-chloro-4-(cyanomethoxy)-2-fluorophenyl]-5-phenyl-1H-pyrrole-3-sulfonamide]
< 0.5 | Cc1cc(F)cnc1-c1cc(S(=O)(=O)Nc2ccc(C#N)cc2F)c[nH]1 [Cpd 577, N-(4-cyano-2-fluorophenyl)-5-(5-fluoro-3-methylpyridin-2-yl)-1H-pyrrole-3-sulfonamide]
< 0.5 | N#CCOc1cc(F)c(NS(=O)(=O)c2c[nH]c(C3CCC3)c2)cc1F [Cpd 578, N-[4-(cyanomethoxy)-2,5-difluorophenyl]-5-cyclobutyl-1H-pyrrole-3-sulfonamide]
0.5 to 5 | O=S(=O)(Nc1cc(F)c(C(F)(F)F)cc1F)c1c[nH]c(-c2ncccc2C(F)F)c1 [Cpd 580, 5-[3-(difluoromethyl)pyridin-2-yl]-N-[2,5-difluoro-4-(trifluoromethyl)phenyl]-1H-pyrrole-3-sulfonamide]
5 to 50 | N#Cc1ccc(NS(=O)(=O)c2c[nH]c(-c3ncccc3C(F)F)c2)c(F)c1 [Cpd 581, N-(4-cyano-2-fluorophenyl)-5-[3-(difluoromethyl)pyridin-2-yl]-1H-pyrrole-3-sulfonamide]
0.5 to 5 | Cc1noc(C)c1-c1cc(S(=O)(=O)Nc2cc(F)c(C(F)(F)F)cc2F)c[nH]1 [Cpd 582, N-[2,5-difluoro-4-(trifluoromethyl)phenyl]-5-(3,5-dimethyl-1,2-oxazol-4-yl)-1H-pyrrole-3-sulfonamide]
< 0.5 | N#Cc1cc(F)c(NS(=O)(=O)c2c[nH]cc2Cc2ccc(F)cc2)cc1F [Cpd 584, N-(4-cyano-2,5-difluorophenyl)-4-[(4-fluorophenyl)methyl]-1H-pyrrole-3-sulfonamide]
< 0.5 | N#Cc1cc(F)c(NS(=O)(=O)c2c[nH]cc2Cc2cccc(F)c2)cc1F [Cpd 585, N-(4-cyano-2,5-difluorophenyl)-4-[(3-fluorophenyl)methyl]-1H-pyrrole-3-sulfonamide]
0.5 to 5 | N#Cc1cc(F)c(NS(=O)(=O)c2c[nH]cc2Cc2cccc(C3CC3)c2)cc1F [Cpd 586, N-(4-cyano-2,5-difluorophenyl)-4-[(3-cyclopropylphenyl)methyl]-1H-pyrrole-3-sulfonamide]
0.5 to 5 | N#Cc1ccc(NS(=O)(=O)c2c[nH]c(-c3ccccc3OC(F)(F)F)c2)c(F)c1 [Cpd 587, N-(4-cyano-2-fluorophenyl)-5-[2-(trifluoromethoxy)phenyl]-1H-pyrrole-3-sulfonamide]
< 0.5 | N#Cc1cc(F)c(NS(=O)(=O)c2c[nH]c(-c3ccccc3OC(F)(F)F)c2)cc1F [Cpd 588, N-(4-cyano-2,5-difluorophenyl)-5-[2-(trifluoromethoxy)phenyl]-1H-pyrrole-3-sulfonamide]
0.5 to 5 | O=S(=O)(Nc1cc(F)c(C(F)(F)F)cc1F)c1c[nH]c(-c2ccccc2OC(F)(F)F)c1 [Cpd 589, N-[2,5-difluoro-4-(trifluoromethyl)phenyl]-5-[2-(trifluoromethoxy)phenyl]-1H-pyrrole-3-sulfonamide]
5 to 50 | O=S(=O)(Nc1cc(F)c(C(F)(F)F)cc1F)c1c[nH]cc1Cc1cccc(C2CC2)c1 [Cpd 590, 4-[(3-cyclopropylphenyl)methyl]-N-[2,5-difluoro-4-(trifluoromethyl)phenyl]-1H-pyrrole-3-sulfonamide]
5 to 50 | O=S(=O)(Nc1cnsc1)c1c[nH]c(-c2ccccc2)c1 [Cpd 591, 5-phenyl-N-(1,2-thiazol-4-yl)-1H-pyrrole-3-sulfonamide]
0.5 to 5 | N#Cc1ccc(NS(=O)(=O)c2c[nH]c(-c3ncccc3CF)c2)c(F)c1 [Cpd 592, N-(4-cyano-2-fluorophenyl)-5-[3-(fluoromethyl)pyridin-2-yl]-1H-pyrrole-3-sulfonamide]
0.5 to 5 | O=S(=O)(Nc1cc(F)cs1)c1c[nH]c(-c2ccccc2)c1 [Cpd 593, N-(4-fluorothiophene-2-yl)-5-phenyl-1H-pyrrole-3-sulfonamide]
< 0.5 | N#Cc1ccc(NS(=O)(=O)c2c[nH]c(-c3cscc3F)c2)c(F)c1 [Cpd 594, N-(4-cyano-2-fluorophenyl)-5-(4-fluorothiophene-3-yl)-1H-pyrrole-3-sulfonamide]
0.5 to 5 | Cc1nc(-c2cc(S(=O)(=O)Nc3cc(F)c(C(F)(F)F)cc3F)c[nH]2)cs1 [Cpd 595, N-[2,5-difluoro-4-(trifluoromethyl)phenyl]-5-(2-methyl-1,3-thiazol-4-yl)-1H-pyrrole-3-sulfonamide]

IC50 [µM] | SMILES
0.5 to 5 | N#Cc1cc(F)c(NS(=O)(=O)c2c[nH]c(-c3ccc(F)c(Cl)c3)c2)cc1F [Cpd 596, 5-(3-chloro-4-fluorophenyl)-N-(4-cyano-2,5-difluorophenyl)-1H-pyrrole-3-sulfonamide]
< 0.5 | O=S(=O)(Nc1cc(F)c(C(F)(F)F)cc1F)c1c[nH]c(-c2cncs2)c1 [Cpd 597, N-[2,5-difluoro-4-(trifluoromethyl)phenyl]-5-(1,3-thiazol-5-yl)-1H-pyrrole-3-sulfonamide]
< 0.5 | N#Cc1cc(F)c(NS(=O)(=O)c2c[nH]c(-c3nccs3)c2)cc1F [Cpd 598, N-(4-cyano-2,5-difluorophenyl)-5-(1,3-thiazol-2-yl)-1H-pyrrole-3-sulfonamide]
< 0.5 | Cc1csc(-c2cc(S(=O)(=O)Nc3cc(F)c(C(F)(F)F)cc3F)c[nH]2)n1 [Cpd 599, N-[2,5-difluoro-4-(trifluoromethyl)phenyl]-5-(4-methyl-1,3-thiazol-2-yl)-1H-pyrrole-3-sulfonamide]
5 to 50 | Cn1cccc(-c2cc(S(=O)(=O)Nc3ccc(C#N)cc3F)c[nH]2)c1=O [Cpd 600, N-(4-cyano-2-fluorophenyl)-5-(1-methyl-2-oxopyridin-3-yl)-1H-pyrrole-3-sulfonamide]
0.5 to 5 | N#Cc1cc(F)c(NS(=O)(=O)c2c[nH]c(-c3ccccc3)c2)s1 [Cpd 601, N-(5-cyano-3-fluorothiophen-2-yl)-5-phenyl-1H-pyrrole-3-sulfonamide]
< 0.5 | N#Cc1ccc(NS(=O)(=O)c2c[nH]c(-c3sccc3F)c2)c(F)c1 [Cpd 602, N-(4-cyano-2-fluorophenyl)-5-(3-fluorothiophen-2-yl)-1H-pyrrole-3-sulfonamide]
5 to 50 | CC(C)n1cccc(-c2cc(S(=O)(=O)Nc3ccc(C#N)cc3F)c[nH]2)c1=O [Cpd 603, N-(4-cyano-2-fluorophenyl)-5-(2-oxo-1-propan-2-ylpyridin-3-yl)-1H-pyrrole-3-sulfonamide]
0.5 to 5 | N#Cc1ccc(NS(=O)(=O)c2c[nH]c(-c3cccn(C(F)F)c3=O)c2)c(F)c1 [Cpd 604, N-(4-cyano-2-fluorophenyl)-5-[1-(difluoromethyl)-2-oxopyridin-3-yl]-1H-pyrrole-3-sulfonamide]
0.5 to 5 | N#Cc1cc(F)c(NS(=O)(=O)c2c[nH]cc2Cc2cc(F)cc(Cl)c2)cc1F [Cpd 605, 4-[(3-chloro-5-fluorophenyl)methyl]-N-(4-cyano-2,5-difluorophenyl)-1H-pyrrole-3-sulfonamide]
0.5 to 5 | Cc1cnc(-c2cc(S(=O)(=O)Nc3cc(F)c(C(F)(F)F)cc3F)c[nH]2)s1 [Cpd 606, N-[2,5-difluoro-4-(trifluoromethyl)phenyl]-5-(5-methyl-1,3-thiazol-2-yl)-1H-pyrrole-3-sulfonamide]
5 to 50 | N#Cc1cnc(-c2cc(S(=O)(=O)Nc3cc(F)c(C(F)(F)F)cc3F)c[nH]2)s1 [Cpd 607, 5-(5-cyano-1,3-thiazol-2-yl)-N-[2,5-difluoro-4-(trifluoromethyl)phenyl]-1H-pyrrole-3-sulfonamide]
5 to 50 | N#Cc1ccc(NS(=O)(=O)c2c[nH]cc2Cc2ccc3c(c2)OCC3)c(F)c1 [Cpd 608, N-(4-cyano-2-fluorophenyl)-4-(2,3-dihydro-1-benzofuran-6-ylmethyl)-1H-pyrrole-3-sulfonamide]
0.5 to 5 | N#Cc1ccc(NS(=O)(=O)c2c[nH]c(F)c2Cc2ccccc2)c(F)c1 [Cpd 609, 4-benzyl-N-(4-cyano-2-fluorophenyl)-5-fluoro-1H-pyrrole-3-sulfonamide]
< 0.5 | N#Cc1ccc(NS(=O)(=O)c2c[nH]c(-c3nccs3)c2)c(F)c1 [Cpd 610, N-(4-cyano-2-fluorophenyl)-5-(1,3-thiazol-2-yl)-1H-pyrrole-3-sulfonamide]
0.5 to 5 | O=S(=O)(Nc1cc(F)c(OC(F)F)cc1F)c1c[nH]c(-c2nnco2)c1 [Cpd 611, N-[4-(difluoromethoxy)-2,5-difluorophenyl]-5-(1,3,4-oxadiazol-2-yl)-1H-pyrrole-3-sulfonamide]
< 0.5 | [2H]c1ccc(-c2cc(S(=O)(=O)Nc3ccc(C#N)cc3F)c[nH]2)cc1 [Cpd 612, N-(4-cyano-2-fluorophenyl)-5-(4-deuteriophenyl)-1H-pyrrole-3-sulfonamide]
0.5 to 5 | O=S(=O)(Nc1cc(F)c(OC(F)F)cc1F)c1c[nH]c(-c2ncns2)c1 [Cpd 613, N-[4-(difluoromethoxy)-2,5-difluorophenyl]-5-(1,2,4-thiadiazol-5-yl)-1H-pyrrole-3-sulfonamide]
5 to 50 | N#Cc1ccc(NS(=O)(=O)c2c[nH]c(-c3cccn(CC(F)(F)F)c3=O)c2)c(F)c1 [Cpd 614, N-(4-cyano-2-fluorophenyl)-5-[2-oxo-1-(2,2,2-trifluoroethyl)pyridin-3-yl]-1H-pyrrole-3-sulfonamide]
< 0.5 | N#Cc1cc(F)c(NS(=O)(=O)c2c[nH]c(-c3cccc4ccoc34)c2)cc1F [Cpd 615, 5-(1-benzofuran-7-yl)-N-(4-cyano-2,5-difluorophenyl)-1H-pyrrole-3-sulfonamide]
